Source: the NIST ThermoML archive (doi:10.1021/je030173e)
± gives the expanded uncertainty stated by the source.

Key:
[1] = xn = mol fraction of the nth substance listed

COCCO [2-methoxyethan-1-ol]
Settings | surface tension liquid-gas [mN/m]
298.15 K | 30.82 ± 0.87
308.15 K | 30.02 ± 0.86
318.15 K | 29.1 ± 0.83

COCCOCCO [2-(2-methoxyethoxy)ethanol]
Settings | surface tension liquid-gas [mN/m]
298.15 K | 34.73 ± 1
308.15 K | 33.91 ± 1
318.15 K | 32.95 ± 0.98

COCCOCCOCCO [2-[2-(2-methoxyethoxy)ethoxy]ethanol]
Settings | surface tension liquid-gas [mN/m]
298.15 K | 36.28 ± 1.1
308.15 K | 35.79 ± 1.1
318.15 K | 35.21 ± 1.1

COCCO [2-methoxyethan-1-ol] + O
surface tension liquid-gas [mN/m], [1]
Settings | 298.15 K | 308.15 K | 318.15 K
x1 = 0.0509 | 56.33 ± 1.5 | 55.17 ± 1.4 | 53.9 ± 1.4
x1 = 0.0559 | 55.11 ± 1.4 | 54.04 ± 1.4 | 52.82 ± 1.4
x1 = 0.1052 | 46.86 ± 1.2 | 45.88 ± 1.2 | 44.8 ± 1.2
x1 = 0.1494 | 43.31 ± 1.2 | 42.37 ± 1.1 | 41.35 ± 1.1
x1 = 0.2215 | 39.7 ± 1.1 | 38.81 ± 1.1 | 37.83 ± 1
x1 = 0.3373 | 36.75 ± 1 | 35.89 ± 0.99 | 34.92 ± 0.97
x1 = 0.4783 | 35.02 ± 0.97 | 34.18 ± 0.95 | 33.22 ± 0.93
x1 = 0.6258 | 32.91 ± 0.92 | 32.02 ± 0.9 | 31.13 ± 0.88
x1 = 0.7814 | 31.78 ± 0.9 | 30.96 ± 0.88 | 30.02 ± 0.85
x1 = 0.8912 | 31.02 ± 0.88 | 30.21 ± 0.86 | 29.28 ± 0.84
x1 = 1 | 30.82 ± 0.87 | 30.02 ± 0.86 | 29.1 ± 0.83

COCCOC [1,2-dimethoxyethane]
Settings | surface tension liquid-gas [mN/m]
298.15 K | 23.79 ± 0.72
308.15 K | 22.91 ± 0.7
318.15 K | 21.89 ± 0.67

O [water]
Settings | surface tension liquid-gas [mN/m]
298.15 K | 71.99 ± 1.8
308.15 K | 70.38 ± 1.8
318.15 K | 68.82 ± 1.8

COCCOCCO [2-(2-methoxyethoxy)ethanol] + O
surface tension liquid-gas [mN/m], [1]
Settings | 298.15 K | 308.15 K | 318.15 K
x1 = 0.0374 | 58.57 ± 1.5 | 57.12 ± 1.5 | 55.97 ± 1.5
x1 = 0.0558 | 55.28 ± 1.4 | 53.9 ± 1.4 | 52.21 ± 1.4
x1 = 0.1191 | 45.14 ± 1.2 | 43.86 ± 1.2 | 43.13 ± 1.2
x1 = 0.1951 | 41.05 ± 1.1 | 39.78 ± 1.1 | 38.96 ± 1.1
x1 = 0.3021 | 40.02 ± 1.1 | 38.8 ± 1.1 | 38.55 ± 1.1
x1 = 0.4427 | 38.27 ± 1.1 | 37.12 ± 1 | 36.31 ± 1
x1 = 0.491 | 37.57 ± 1 | 36.46 ± 1 | 35.26 ± 0.99
x1 = 0.5502 | 36.87 ± 1 | 35.92 ± 1 | 34.53 ± 0.98
x1 = 0.7494 | 35.37 ± 1 | 34.49 ± 0.99 | 33.45 ± 0.97
x1 = 0.8564 | 35.02 ± 1 | 34.18 ± 0.99 | 33.12 ± 0.97
x1 = 1 | 34.73 ± 1 | 33.91 ± 1 | 32.95 ± 0.98

COCCOC [1,2-dimethoxyethane] + O
surface tension liquid-gas [mN/m], [1]
Settings | x1 = 0.047 | x1 = 0.066 | x1 = 0.0759 | x1 = 0.1286 | x1 = 0.1942 | x1 = 0.2612 | x1 = 0.4132 | x1 = 0.6313 | x1 = 1
298.15 K | 48.35 ± 1.3 | 42.42 ± 1.1 | 40.62 ± 1.1 | 31.96 ± 0.9 | 28.55 ± 0.82 | 27.81 ± 0.8 | 26.08 ± 0.76 | 25.41 ± 0.75 | 23.79 ± 0.72
308.15 K | 46.83 ± 1.2 | 40.97 ± 1.1 | 39.26 ± 1.1 | 30.69 ± 0.87 | 27.43 ± 0.79 | 26.81 ± 0.78 | 25.12 ± 0.74 | 24.49 ± 0.73 | 22.91 ± 0.7
318.15 K | 46.47 ± 1.2 | 40.62 ± 1.1 | 37.71 ± 1 | 29.26 ± 0.84 | 26.53 ± 0.77 | 25.92 ± 0.76 | 24.78 ± 0.73 | 23.6 ± 0.71 | 21.89 ± 0.67

O [water] + COCCOCCOCCO
[1], x2 = 0
Settings | surface tension liquid-gas [mN/m]
298.15 K | 71.99 ± 1.8
308.15 K | 70.38 ± 1.8
318.15 K | 68.82 ± 1.8

COCCOCCOCCO [2-[2-(2-methoxyethoxy)ethoxy]ethanol] + O
surface tension liquid-gas [mN/m], [1]
Settings | x1 = 0.0564 | x1 = 0.0964 | x1 = 0.1673 | x1 = 0.3525 | x1 = 0.474 | x1 = 0.5536 | x1 = 0.6606 | x1 = 0.7512 | x1 = 0.8736 | x1 = 1
298.15 K | 54.62 ± 1.4 | 47.43 ± 1.3 | 41.73 ± 1.1 | 40.45 ± 1.1 | 39.1 ± 1.1 | 37.76 ± 1.1 | 37.13 ± 1.1 | 36.91 ± 1.1 | 36.69 ± 1.1 | 36.28 ± 1.1
308.15 K | 53.11 ± 1.4 | 45.98 ± 1.2 | 40.46 ± 1.1 | 39.45 ± 1.1 | 38.29 ± 1.1 | 37.04 ± 1.1 | 36.49 ± 1.1 | 36.35 ± 1.1 | 36.18 ± 1.1 | 35.79 ± 1.1
318.15 K | 51.53 ± 1.4 | 44.95 ± 1.2 | 39.01 ± 1.1 | 38.12 ± 1.1 | 37.42 ± 1.1 | 36.12 ± 1 | 35.85 ± 1.1 | 35.46 ± 1.1 | 35.29 ± 1.1 | 35.21 ± 1.1

O [water] + COCCOC
[1], x2 = 0
Settings | surface tension liquid-gas [mN/m]
298.15 K | 71.99 ± 1.8
308.15 K | 70.38 ± 1.8
318.15 K | 68.82 ± 1.8

O [water] + COCCO
[1], x2 = 0
Settings | surface tension liquid-gas [mN/m]
298.15 K | 71.99 ± 1.8
308.15 K | 70.38 ± 1.8
318.15 K | 68.82 ± 1.8

O [water] + COCCOCCO
[1], x2 = 0
Settings | surface tension liquid-gas [mN/m]
298.15 K | 71.99 ± 1.8
308.15 K | 70.38 ± 1.8
318.15 K | 68.82 ± 1.8
